Laboratory results reported in publication PMC3867503 (PLoS ONE, 2013).
Several values for one entry are separate records, joined by “and”; a condition that tells them apart may be missing. Equal entries are not always repeated. Entries after “also recorded” stand apart in the source; their conditions may differ. Where two headings read alike, the source gives them in different places. One block for each molecule: values may come before it.

Columns and labels:
[1] = target: T1, recombinant human EYA3 (Homo sapiens, UniProt Q99504); assay: pNPP hydrolysis by EYA3 (tyrosine phosphatase enzyme assay); type: biochemical; conditions: for IC50: recombinant human EYA3, substrate pNPP, read-out: IC50 (95% confidence intervals), pNPP hydrolysis by EYA3
T1 construct: a splice variant of Q99504 corresponding to isoform 2 and missing residues 1 - 126; made in house
T1 sequence (Q99504 1-447 isoform Q99504-2): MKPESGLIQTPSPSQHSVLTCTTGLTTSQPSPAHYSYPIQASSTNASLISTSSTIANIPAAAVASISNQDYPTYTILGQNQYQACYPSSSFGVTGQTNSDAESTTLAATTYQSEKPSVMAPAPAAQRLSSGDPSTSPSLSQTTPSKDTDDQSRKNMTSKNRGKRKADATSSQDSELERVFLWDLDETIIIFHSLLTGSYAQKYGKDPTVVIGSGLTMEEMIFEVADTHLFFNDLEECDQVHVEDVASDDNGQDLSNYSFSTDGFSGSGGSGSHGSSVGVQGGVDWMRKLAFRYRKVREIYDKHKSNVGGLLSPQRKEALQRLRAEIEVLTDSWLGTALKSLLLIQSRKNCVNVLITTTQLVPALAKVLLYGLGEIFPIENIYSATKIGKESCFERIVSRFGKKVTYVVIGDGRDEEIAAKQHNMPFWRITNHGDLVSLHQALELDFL
Method: Purification of recombinant EYA3 has been reported previously. Assays using the colorimetric substrate p-nitrophenylphosphate were conducted as previously reported.
Enzymatic assays were conducted using recombinant human EYA3 (a splice variant of Q99504 corresponding to isoform 2 and missing residues 1 - 126) purified as described. The chromogenic substrate para-nitrophenylphosphate (pNPP) was used to measure catalytic activity of EYA3. […] To assay potential EYA inhibitors, the compounds were pre-incubated with EYA3, pNPP added, and the formation of the p-nitrophenolate product measured. […] In addition, an ex vivo examination of sprouting angiogenesis was conducted using the aortic ring assay.

[2] = cited from earlier work; for half-life: as previously reported; for maximal plasma concentration: single oral dose of 100 mg
[3] = system: HUVECs; conditions: cited from earlier work
[4] = system: HUVECs; assay: HUVEC proliferation / cell viability assay (WST-8); type: cell-based, human; conditions: for effect on cell viability / proliferation: 72 hours
Method: 75% confluent HUVECs (<passage 8) were washed with PBS and trypsinized, deactivated with 10% FBS, spun down and counted. 1000 cells/well were seeded in triplicate in 100 μl EGM-2 complete medium either with inhibitors (in 0.2% DMSO) or vehicle alone (0.2% DMSO). After 0 hrs, 24 hrs, 48 hrs, 72 hrs of incubation at 37°C in […] 10 μl WST-8 was added to each well and incubated for 2 hours in the dark, at 37°C, […]. Absorption was read at 450 nm. Fold change was calculated as the ratio of the OD450 at the experimental time point and at the start of the experiment (0 hours).
A cell viability assay was conducted over 3 days of exposure to the test compounds in order to assess both the possibility of immediate cellular toxicity as well as any effect on cell proliferation. HUVECs were seeded and equilibrated for 24 hours before addition of the test compounds. Cellular metabolic activity was measured at defined time-points using the tetrazolium dye WST-8 to quantify NAD(P)H-dependent cellular oxidoreductase enzyme activity.
Figure 2 Proliferation of HUVECs in the presence of 7.5 μM test compounds. Cell viability was measured at 72 hours post-seeding. Asterisk represents significant differences between groups (*** P<0.001, * P<0.05).

[5] = target: T1, recombinant human EYA3; conditions: recombinant EYA3, substrate pNPP; reported previously; read-out: IC50 (95% confidence intervals), pNPP hydrolysis by EYA3; cited from earlier work
[6] = system: HUVECs; assay: Scratch wound healing (cell migration) assay; type: cell-based, human
Method: 10^5 HUVECs/well were seeded on 24-well plates and cultured until they reached confluency in EGM-2. The monolayers were then scratch-wounded using a 200 μl pipette tip, washed with PBS, and incubated with EGM-2 complete medium and either EYA Inhibitors or vehicle control (0.2% DMSO). Wounds were photographed immediately upon insult, and at various time-points following wounding using a phase-contrast microscope. The number of cells that migrated into the cleared area was counted using the Cell Counter function of ImageJ [20].
The effect of the test compounds on cell migration was assessed using a scratch wound healing assay and HUVEC cells. Cells were plated and grown to confluency. Scratch wounds were made using a sterile pipette tip, the medium changed to remove any cellular debris, and fresh medium with either vehicle or test compound was introduced. The number of cells that migrated into the cleared space was counted 22 hours later. […] Previous experiments had shown a role for EYA3 in trans-well migration of HUVECs. […] Lentiviral shRNA targeting EYA3 in HUVECs led to greater than 80% reduction in EYA3 protein levels (Figure 4A).
Figure 3 Lateral migration of HUVECs in the presence of test compounds. […] (B) Number of cells that migrate into the wounded area was counted using the Cell Counter functionality of ImageJ. […]

[7] = system: HUVECs; assay: Tubulogenesis assay on growth-factor reduced Matrigel; type: cell-based, human
Method: Growth factor reduced Matrigel was thawed overnight on ice at 4°C. 40 μl Matrigel was added to each well of a 96-well plate and incubated for 30 mins to polymerize. 10,000 cells in 100 μl EGM-2 complete medium with either inhibitors or vehicle control (0.2% DMSO) were added to each well. Plates were incubated for 24 hours at 37°C, 5% CO2 and then photographed at 5X magnification. Tube length was measured using the NeuronJ plugin [21] for the NIH ImageJ software.
Primary endothelial cells (ECs) on basement membrane rapidly attach, align themselves and form capillary-like tubules with lumens and tight cell-cell contacts. […] To better understand the stage in matrigel tube-formation affected by 6OH-BBR we followed cells plated on growth-factor reduced matrigel and treated with either vehicle or 6OH-BBR (Figure 5C). Differences become apparent within the first two hours and are clearly visible at the 6-hour time-point. The ECs are much less organized in the presence of 6OH-BBR.
(A) Representative phase-contrast images of HUVECs plated on growth-factor reduced Matrigel in the presence of the indicated doses of test compounds, photographed 16 hours after plating. (B) Quantitation of the number of tube-like structures formed by HUVECs in the presence of test compounds. The number of tubes was measured using NeuronJ. […]

[8] = system: aortic ring explants from C57BL/6 mice; assay: Aortic ring sprouting assay (ex vivo); conditions: mouse aortic rings in collagen, initially 7.5 μM, 10-day treatment
Method: The preparation of rat collagen and the aortic ring assay were carried out as previously described. Briefly, aortic ring explants were obtained from C57BL/6 mice aged 4 to 6 weeks and cultured at 37°C in a humidified incubator under a 5% CO2 atmosphere in serum-free EBM. Within 30 minutes of dissection the rings were placed in a 3D collagen matrix supported by a UV-sterilized nylon mesh ring with inner and outer diameters of 3 mm and 5.6 mm, respectively. The matrix was prepared by mixing 8 parts of collagen solution, 1 part of 10x M199 and 1 part of 23.4mg/ml NaHCO3. After another 30 min incubation at 37°C, the assembly was transferred into a well of 96-well plate filled with 150 μl of culture medium; either control medium consisting of 0.1% DMSO in EBM, 2.5% FBS, penicillin/streptomycin and 20ng/ml VEGF165 or the test inhibitor dissolved in the control medium. Each compound was applied over a 10-day period with medium changes every two days. […]
This assay allows for analysis of cell proliferation, migration, tube formation, micro-vessel branching, and perivascular recruitment. […] All the test compounds were initially assayed at 7.5 μM and the number of branch-points counted. […]
Figure 6 Effect of test compounds on aortic ring sprouting. […] (B) Quantitation of the number of sprouts per ring with each bar representing at least 4 rings. *** P<0.001, ** P<0.01, * P<0.05, ns not significant).

[9] = design: method as in PMID 22398967; conditions: cited from earlier work

- IC50 [1]: 52.5 µM
SMILES: CC(O)c1oc2ccccc2c1C(=O)c1cc(Br)c(O)c(Br)c1 (centres unmarked) [1’OH-BBR, 1’-hydroxybenzbromarone]

- IC50 [1]: 8.9 µM
SMILES: Cc1oc2ccccc2c1C(=O)c1cc(I)c(O)c(I)c1 [BZI]

- IC50 [1]: 3.1 µM
SMILES: CCCCc1oc2ccccc2c1C(=O)c1cc(I)c(O)c(I)c1 [ODAA]
- inhibition of cell migration (in words) [6]: relatively weak inhibitor
- inhibition of tube formation (in words) [7]: relatively weak inhibitor
- fraction bound to plasma protein [9]: ~ 99.9%
- effect on cell viability / proliferation ([4]; 7.5 μM test compound): small but significant positive effect on cell proliferation

- IC50 [1]: 16.4 µM
SMILES: CC(O)CCc1oc2ccccc2c1C(=O)c1cc(I)c(O)c(I)c1 (centres unmarked) [OH-ODAA]

More lines, now with the values behind:

SMILES: CCc1oc2ccccc2c1C(=O)c1cc(Br)c(O)c(Br)c1 [BBR, Benzbromarone]
- half-life [2]: 3 h
- maximal plasma concentration ([2]; rapid eliminators): 3.9 μg/ml and ~ 9.2 μM
- maximal plasma concentration ([2]; slow eliminator): 9.17 μg/ml and ~ 21.8 μM
- effect on proliferation of HUVECs in the first 24 hours [3]: does not influence proliferation
- effect on cell viability / proliferation ([4]; 7.5 μM test compound): reduced cell viability; also recorded: significant inhibition of cell proliferation

SMILES: CCc1oc2ccccc2c1C(=O)c1ccc(O)cc1 [BZ, Benzarone, reference compound]
- effect on proliferation of HUVECs in the first 24 hours [3]: does not influence proliferation
- IC50 [5]: 17.5 µM
- effect on cell viability / proliferation ([4]; 7.5 μM test compound): reduced cell viability; also recorded: significant inhibition of cell proliferation

SMILES: CCc1oc2ccc(O)cc2c1C(=O)c1cc(Br)c(O)c(Br)c1 [Compound 5OH-BBR, 5-hydroxy benzbromaorne]
- IC50 [1]: 49.4 µM

SMILES: CCc1oc2ccc(O)cc2c1C(=O)c1ccc(O)cc1 [Compound 5OH-BZ]
- IC50 [1]: > 150 µM

SMILES: CCc1oc2cc(O)ccc2c1C(=O)c1cc(Br)c(O)c(Br)c1 [Compound 6OH-BBR, 6-hydroxybenzbromarone]
- reduction of cell migration ([6]; 7.5 μM test compound, 22 hours after wounding): ~80%
- half-life [2]: 30 h
- inhibition of tube formation (in words) [7]: much stronger inhibitory effect than BZ
- attenuation of aortic ring sprouting (in words) [8]: most potent inhibitor
- IC50 relative to BBR ([1]; EYA3 inhibition in vitro): over twice
- IC50 [1]: 21.5 µM
- reduction in cell proliferation ([4]; 7.5 μM test compound, 72 hours post-seeding): over 50%
- effect on cell proliferation at the 24-hour time-point ([4]; 24 hours): attenuated cell proliferation

SMILES: Cc1oc2ccccc2c1C(=O)c1ccc(O)c(I)c1 [DIBZI]
- IC50 [1]: 20.5 µM
- effect on cell viability / proliferation ([4]; 7.5 μM test compound): small but significant positive effect on cell proliferation

SMILES: Cc1oc2ccccc2c1C(=O)c1ccc(O)cc1 [DMBZ]
- IC50 [1]: 135 µM
